# Laboratory results reported in article PMC9340770 (Journal of Medicinal Chemistry, 2022).
# Like-named read-outs stand apart in the source and are kept apart here.
# Key:
# [1] = target: T1, ADORA2A (Homo sapiens, UniProt P29274); assay: Safetyscan Calcium Flux; type: cell-based
# T1 construct: purchased DiscoverX (Eurofins) Safetyscan Panel
# [2] = test system: pERK in MIA PaCa-2 tumors; assay: Tumor pharmacodynamic (pERK) study in MIA PaCa-2 mouse xenograft
# [3] = target: CYP3A4 (Homo sapiens, UniProt P08684); assay: biochemical
# [4] = target: T2, ADRB1 (Homo sapiens, UniProt P08588); assay: Safetyscan cAMP; type: cell-based
# T2 construct: purchased DiscoverX (Eurofins) Safetyscan Panel
# T2 sequence (P08588 whole entry): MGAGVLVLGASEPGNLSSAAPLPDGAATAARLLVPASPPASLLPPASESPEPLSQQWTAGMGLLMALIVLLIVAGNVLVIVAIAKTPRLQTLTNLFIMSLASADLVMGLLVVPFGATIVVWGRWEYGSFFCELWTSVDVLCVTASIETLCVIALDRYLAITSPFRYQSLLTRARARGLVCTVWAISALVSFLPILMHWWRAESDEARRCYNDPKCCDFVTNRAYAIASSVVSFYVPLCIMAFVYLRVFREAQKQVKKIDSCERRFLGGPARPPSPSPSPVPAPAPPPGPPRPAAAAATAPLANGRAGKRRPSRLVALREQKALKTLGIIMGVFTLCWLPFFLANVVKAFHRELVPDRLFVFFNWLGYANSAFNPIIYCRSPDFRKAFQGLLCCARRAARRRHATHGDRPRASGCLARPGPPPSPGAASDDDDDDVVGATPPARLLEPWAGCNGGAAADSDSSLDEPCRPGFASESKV
# [5] = target: T3, COX1 (Homo sapiens, UniProt P23219); assay: Safetyscan Enzymatic; type: biochemical; settings: read-out: RC50 (IC50) COX1 Inhibitor
# T3 construct: purchased DiscoverX (Eurofins)
# [6] = target: T4, CCKAR (Homo sapiens, UniProt P32238); assay: Safetyscan Calcium Flux; type: cell-based
# T4 construct: purchased DiscoverX (Eurofins) Safetyscan Panel
# T4 sequence (P32238 whole entry): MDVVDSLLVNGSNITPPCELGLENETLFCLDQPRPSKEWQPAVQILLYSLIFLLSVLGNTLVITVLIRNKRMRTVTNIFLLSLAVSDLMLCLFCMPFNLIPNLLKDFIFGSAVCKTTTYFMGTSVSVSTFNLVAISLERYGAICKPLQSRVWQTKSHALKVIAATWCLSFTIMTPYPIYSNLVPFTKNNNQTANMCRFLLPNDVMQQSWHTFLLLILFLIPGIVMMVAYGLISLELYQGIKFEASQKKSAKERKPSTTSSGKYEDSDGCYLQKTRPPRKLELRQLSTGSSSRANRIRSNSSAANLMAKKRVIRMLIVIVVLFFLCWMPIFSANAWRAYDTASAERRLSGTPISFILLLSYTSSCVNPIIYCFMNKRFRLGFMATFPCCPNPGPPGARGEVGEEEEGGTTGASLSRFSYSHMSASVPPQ
# [7] = target: T5, HRH2 (Homo sapiens, UniProt P25021); assay: Safetyscan cAMP; type: cell-based
# T5 construct: purchased DiscoverX (Eurofins) Safetyscan Panel
# T5 sequence (P25021 whole entry): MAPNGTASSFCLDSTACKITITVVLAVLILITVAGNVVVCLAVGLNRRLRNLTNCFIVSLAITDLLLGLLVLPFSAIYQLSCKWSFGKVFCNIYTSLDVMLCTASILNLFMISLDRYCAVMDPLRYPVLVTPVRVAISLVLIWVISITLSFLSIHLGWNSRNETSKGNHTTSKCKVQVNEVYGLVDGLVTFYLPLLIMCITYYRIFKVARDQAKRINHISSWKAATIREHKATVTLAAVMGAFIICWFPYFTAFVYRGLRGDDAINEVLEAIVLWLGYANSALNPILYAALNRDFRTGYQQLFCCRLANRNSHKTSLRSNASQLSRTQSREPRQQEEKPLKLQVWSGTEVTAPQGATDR
# [8] = target: T6, HRH1 (Homo sapiens, UniProt P35367); assay: Safetyscan Calcium Flux; type: cell-based
# T6 construct: purchased DiscoverX (Eurofins) Safetyscan Panel
# T6 sequence (P35367 whole entry): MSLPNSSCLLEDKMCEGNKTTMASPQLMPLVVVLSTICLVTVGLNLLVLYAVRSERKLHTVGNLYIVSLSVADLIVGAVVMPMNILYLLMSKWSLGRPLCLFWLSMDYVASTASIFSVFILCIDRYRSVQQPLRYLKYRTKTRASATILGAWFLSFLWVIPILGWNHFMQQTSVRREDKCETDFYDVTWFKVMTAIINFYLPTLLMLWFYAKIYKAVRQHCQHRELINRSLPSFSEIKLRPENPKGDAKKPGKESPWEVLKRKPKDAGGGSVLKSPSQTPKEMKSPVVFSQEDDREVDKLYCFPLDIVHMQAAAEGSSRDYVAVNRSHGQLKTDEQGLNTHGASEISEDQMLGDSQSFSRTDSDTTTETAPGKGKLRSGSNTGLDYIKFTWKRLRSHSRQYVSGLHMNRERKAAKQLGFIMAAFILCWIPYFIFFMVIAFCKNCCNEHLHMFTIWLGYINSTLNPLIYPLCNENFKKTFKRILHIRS
# [9] = target: T7, CAV1.2 (Homo sapiens, UniProt Q13936); assay: Safetyscan Ion Channel; type: cell-based; settings: blocker mode, read-out: RC50 (IC50) CAV1.2 Blocker
# T7 construct: purchased DiscoverX (Eurofins)
# [10] = target: T8, LCK (Homo sapiens, UniProt P06239); assay: Safetyscan Kinases Binding; settings: read-out: RC50 (IC50) LCK Inhibitor
# T8 construct: purchased DiscoverX (Eurofins)
# [11] = mouse, IV 3 mg/kg
# [12] = test system: MIA PaCa-2 tumor mouse xenograft; assay: Antitumor efficacy study in MIA PaCa-2 mouse xenograft; settings: for tumor growth inhibition (TGI): single agent, 25 days
# [13] = target: T9, GR (Homo sapiens, UniProt P04150); assay: Safetyscan NHR Protein Interaction; type: cell-based
# T9 construct: purchased DiscoverX (Eurofins)
# T9 sequence (P04150 whole entry): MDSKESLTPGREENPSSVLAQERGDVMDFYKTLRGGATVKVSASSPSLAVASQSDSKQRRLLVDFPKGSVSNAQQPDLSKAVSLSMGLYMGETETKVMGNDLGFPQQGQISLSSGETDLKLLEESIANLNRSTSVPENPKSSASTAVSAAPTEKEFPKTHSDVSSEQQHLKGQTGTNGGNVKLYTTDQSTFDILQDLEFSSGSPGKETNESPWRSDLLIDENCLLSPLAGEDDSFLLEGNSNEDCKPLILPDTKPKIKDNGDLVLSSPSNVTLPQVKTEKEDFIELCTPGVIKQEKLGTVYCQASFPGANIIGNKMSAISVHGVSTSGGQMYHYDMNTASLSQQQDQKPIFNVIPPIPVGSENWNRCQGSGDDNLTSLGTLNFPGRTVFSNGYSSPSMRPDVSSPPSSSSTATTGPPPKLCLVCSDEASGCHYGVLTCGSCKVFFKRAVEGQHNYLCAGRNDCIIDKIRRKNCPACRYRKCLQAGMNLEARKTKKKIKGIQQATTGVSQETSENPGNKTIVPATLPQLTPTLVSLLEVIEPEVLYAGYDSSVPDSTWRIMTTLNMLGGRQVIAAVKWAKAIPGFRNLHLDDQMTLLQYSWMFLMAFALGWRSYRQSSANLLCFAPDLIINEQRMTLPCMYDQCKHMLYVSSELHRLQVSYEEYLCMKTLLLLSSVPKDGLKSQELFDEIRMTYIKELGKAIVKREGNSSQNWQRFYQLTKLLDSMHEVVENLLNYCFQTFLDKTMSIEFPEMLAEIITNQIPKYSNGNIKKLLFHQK
# [14] = target: T10, hERG (Homo sapiens, UniProt Q12809); assay: Safetyscan Ion Channel; type: cell-based; settings: blocker mode, read-out: RC50 (IC50) hERG Blocker
# T10 construct: purchased DiscoverX (Eurofins)
# [15] = target: T11, COX2 (Homo sapiens, UniProt P35354); assay: Safetyscan Enzymatic; type: biochemical; settings: read-out: RC50 (IC50) COX2 Inhibitor
# T11 construct: purchased DiscoverX (Eurofins)
# T11 sequence (P35354 18-604): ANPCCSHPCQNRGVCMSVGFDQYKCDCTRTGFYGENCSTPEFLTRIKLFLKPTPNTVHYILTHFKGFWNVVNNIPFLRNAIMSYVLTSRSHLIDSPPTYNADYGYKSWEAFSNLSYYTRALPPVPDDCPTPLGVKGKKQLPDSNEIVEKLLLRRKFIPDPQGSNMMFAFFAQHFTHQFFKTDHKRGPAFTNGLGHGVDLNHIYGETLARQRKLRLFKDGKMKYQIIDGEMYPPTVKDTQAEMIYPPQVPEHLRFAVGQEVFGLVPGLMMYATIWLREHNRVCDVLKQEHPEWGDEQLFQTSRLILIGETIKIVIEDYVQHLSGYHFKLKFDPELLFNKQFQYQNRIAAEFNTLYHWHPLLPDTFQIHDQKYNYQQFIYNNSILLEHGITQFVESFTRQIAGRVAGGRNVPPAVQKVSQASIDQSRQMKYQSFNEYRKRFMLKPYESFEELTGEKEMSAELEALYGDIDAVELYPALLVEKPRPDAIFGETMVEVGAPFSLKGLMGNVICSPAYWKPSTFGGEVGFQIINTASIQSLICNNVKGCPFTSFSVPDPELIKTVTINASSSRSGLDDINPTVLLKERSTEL
# [16] = pKa determination (Sirius T3); type: physicochemical; settings: for pKa: water/methanol co-solvent mixture
# Method: Sirius T3Dt (Sirius Analytical Instruments Ltd) fitted with combination Ag/AgCl pH electrode was used for the determination of dissociation constants. The pKa and psKa values were calculated by Sirius T3Dt software (Sirius Analytical Instruments Ltd, Version 1.0.12.120). There are two methods available on the Sirius T3 for pKa measurement: potentiometric titration and spectroscopic (UV) titration.
# UV metric method: Pipetted 5 µL of sample stock solution (10 mM in DMSO) and 25 µL fast UV buffer into a sample vial, and 1.5 mL of 80%v/v MeOH was added into the sample vial automatically. Pre - acidified the sample solution with 0.5 M HCl by the instrument automatically, and then titrated three times from low to high pH. Refined the data to get aqu eous pKa value. pH metric method: About 1 mg of sample was weighed into a sample vial. 1.50 mL of 80%v/v MeOH was added into the vial automatically. The sample was solution pre -acidified with 0.5 M HCl by the instrument automatically, and then titrated three times from low to high pH. Refined the data to get aqueous pKa value.
# Sirius T3 software always fits Yasuda -Shedlovsky data linearly, according to the equation.
# • Yi is calculated as psKa + log [H 2O]
# • psKa represents apparent pKa values of compounds measured in water/co -solvent mixtures • [H2O] represents the concentration of H2O in mixtures solution […]
# • ε i represents dielectric constant of water/co-solvent mixture
# Table S3. pKa of MRTX0902
# Cmpd pKa pKa (pH Final pKa
# [17] = target: T12, PDE3A (Homo sapiens, UniProt Q14432); assay: Safetyscan Enzymatic; type: biochemical; settings: read-out: RC50 (IC50) PDE3A Inhibitor
# T12 construct: purchased DiscoverX (Eurofins)
# [18] = PK across species (ranges); type: in vivo, CD-1 mice, Sprague–Dawley rats, and beagle dogs; settings: range across mice, rats, dogs
# [19] = target: T13, VEGFR2 (Homo sapiens, UniProt P35968); assay: Safetyscan Kinases Binding; settings: read-out: RC50 (IC50) VEGFR2 Inhibitor
# T13 construct: purchased DiscoverX (Eurofins)
# [20] = CNS mouse PK study; type: in vivo, female CD-1 mice; settings: female, CD-1, mouse, CSF / free plasma, read-out: CSF:Cp,u (Kp,uu)
# From the text: Table 10 CNS Mouse PK Profile of MRTX0902 (32) ^a | column: mean free plasma concn (Cp,u, nM); mean brain concn (ng/g); mean CSF concn (nM); CSF:Cp,u (Kp,uu)
# [21] = test system: safety panel comprised of 78 protein targets; assay: DiscoverX (Eurofins) Safetyscan panel, overall; settings: safety panel of 78 protein targets
# [22] = target: T14, ROCK1 (Homo sapiens, UniProt Q13464); assay: Safetyscan Kinases Binding; settings: read-out: RC50 (IC50) ROCK1 Inhibitor
# T14 construct: purchased DiscoverX (Eurofins)
# T14 sequence (Q13464 whole entry): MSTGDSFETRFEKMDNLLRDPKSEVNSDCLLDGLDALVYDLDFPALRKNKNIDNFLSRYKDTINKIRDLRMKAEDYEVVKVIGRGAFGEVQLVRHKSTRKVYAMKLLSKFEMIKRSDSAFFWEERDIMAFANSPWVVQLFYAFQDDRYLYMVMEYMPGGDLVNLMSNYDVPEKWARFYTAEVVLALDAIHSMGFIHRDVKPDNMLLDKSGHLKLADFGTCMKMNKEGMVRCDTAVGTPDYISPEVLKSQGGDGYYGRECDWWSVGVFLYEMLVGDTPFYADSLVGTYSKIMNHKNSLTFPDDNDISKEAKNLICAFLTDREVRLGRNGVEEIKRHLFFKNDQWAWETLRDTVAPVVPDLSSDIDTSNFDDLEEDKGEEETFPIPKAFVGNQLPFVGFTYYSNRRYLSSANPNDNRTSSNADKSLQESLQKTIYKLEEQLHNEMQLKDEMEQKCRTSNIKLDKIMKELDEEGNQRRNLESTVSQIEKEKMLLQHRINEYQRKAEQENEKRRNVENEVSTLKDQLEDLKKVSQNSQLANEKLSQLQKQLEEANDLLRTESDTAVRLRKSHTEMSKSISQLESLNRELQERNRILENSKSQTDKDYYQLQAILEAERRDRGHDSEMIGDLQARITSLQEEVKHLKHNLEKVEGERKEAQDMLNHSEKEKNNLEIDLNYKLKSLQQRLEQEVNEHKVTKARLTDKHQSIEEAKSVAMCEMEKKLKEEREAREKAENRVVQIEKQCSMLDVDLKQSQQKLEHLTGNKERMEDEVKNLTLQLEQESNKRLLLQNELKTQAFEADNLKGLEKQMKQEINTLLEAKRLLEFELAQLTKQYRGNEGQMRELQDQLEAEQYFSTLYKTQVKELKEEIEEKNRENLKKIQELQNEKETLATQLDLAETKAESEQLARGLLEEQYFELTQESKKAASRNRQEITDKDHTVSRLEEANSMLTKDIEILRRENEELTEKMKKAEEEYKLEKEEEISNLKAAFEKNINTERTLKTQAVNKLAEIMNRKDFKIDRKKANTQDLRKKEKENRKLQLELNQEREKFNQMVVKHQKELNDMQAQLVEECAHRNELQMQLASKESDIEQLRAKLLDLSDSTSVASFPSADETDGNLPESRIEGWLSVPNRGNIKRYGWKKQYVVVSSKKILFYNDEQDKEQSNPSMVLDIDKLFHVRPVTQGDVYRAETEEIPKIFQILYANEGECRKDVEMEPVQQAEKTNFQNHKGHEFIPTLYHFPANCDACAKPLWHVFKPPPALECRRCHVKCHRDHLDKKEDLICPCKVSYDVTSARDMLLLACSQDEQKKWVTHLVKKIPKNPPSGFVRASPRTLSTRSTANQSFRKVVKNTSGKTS
# [23] = CD-1, Sprague-Dawley, beagle, mouse, rat, dog, in vivo, IV administration
# T1 sequence (P29274 whole entry): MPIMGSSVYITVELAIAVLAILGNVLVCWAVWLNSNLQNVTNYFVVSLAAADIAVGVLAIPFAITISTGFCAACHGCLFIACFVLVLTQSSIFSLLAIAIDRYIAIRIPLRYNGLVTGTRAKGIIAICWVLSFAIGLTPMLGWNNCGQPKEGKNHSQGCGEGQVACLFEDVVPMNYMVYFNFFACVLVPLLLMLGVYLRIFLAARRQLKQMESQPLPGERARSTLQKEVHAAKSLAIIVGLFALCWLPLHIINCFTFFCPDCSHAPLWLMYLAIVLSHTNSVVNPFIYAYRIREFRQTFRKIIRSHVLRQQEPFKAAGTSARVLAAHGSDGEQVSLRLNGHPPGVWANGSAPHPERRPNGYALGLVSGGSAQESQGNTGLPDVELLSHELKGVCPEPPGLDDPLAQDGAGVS
compound,measurement,setting,value
"Cc1c(C#N)cccc1[C@@H](C)Nc1nnc(C)c2cnc(N3CCOCC3)cc12 [Compound 32, (R)-2-Methyl-3-(1-((4-methyl-7-morpholinopyrido[3,4-d]pyridazin-1-yl)amino)ethyl)benzonitrile]",EC50,"[1]; agonist mode, read-out: RC50 (EC50) ADORA2A Agonist",> 10 µM
same,IC50,"[1]; antagonist mode, read-out: RC50 (IC50) ADORA2A Antagonist",> 10 µM
same,"pERK modulation in tumors, combination","[2]; MRTX0902 in combination with MRTX849, 6 days of dosing, tumors collected 4 h after last dose",increased pERK modulation
same,efficacious free Cavg,"[2]; calculated from AUC0–24 of 50 mg/kg bid in combination with MRTX849, MIA PaCa-2 PD study, 6 days of dosing",25 nM
same,IC50,[3],3.6 µM
same,EC50,"[4]; agonist mode, read-out: RC50 (EC50) ADRB1 Agonist",> 10 µM
same,IC50,"[4]; antagonist mode, read-out: RC50 (IC50) ADRB1 Antagonist",> 10 µM
same,IC50,[5],> 10 µM
same,EC50,"[6]; agonist mode, read-out: RC50 (EC50) CCKAR Agonist",> 10 µM
same,IC50,"[6]; antagonist mode, read-out: RC50 (IC50) CCKAR Antagonist",> 10 µM
same,EC50,"[7]; agonist mode, read-out: RC50 (EC50) HRH2 Agonist",> 10 µM
same,IC50,"[7]; antagonist mode, read-out: RC50 (IC50) HRH2 Antagonist",> 10 µM
same,EC50,"[8]; agonist mode, read-out: RC50 (EC50) HRH1 Agonist",> 10 µM
same,IC50,"[8]; antagonist mode, read-out: RC50 (IC50) HRH1 Antagonist",> 10 µM
same,IC50,[9],> 10 µM
same,IC50,[10],> 10 µM
same,Cl,[11],4.4 mL/min/kg
same,IV t1/2,[11],1.3 h
same,"Vd,ss",[11],0.28 L/kg
same,tumor regression,[12]; MRTX0902 25 mg/k bid in combination with MRTX849 10 mg/kg qd,−54%
same,tumor regression,[12]; MRTX0902 50 mg/kg bid in combination with MRTX849 10 mg/kg qd,−92%
same,tumor-free animals,"[12]; MRTX0902 50 mg/kg bid with MRTX849 10 mg/kg qd, n = 5 animals/group",two tumor-free animals
same,tumor growth inhibition (TGI),[12]; 25 mg/kg bid PO,41%
same,tumor growth inhibition (TGI),[12]; 50 mg/kg bid PO,53%
same,EC50,"[13]; agonist mode, read-out: RC50 (EC50) GR Agonist",> 10 µM
same,IC50,"[13]; antagonist mode, read-out: RC50 (IC50) GR Antagonist",> 10 µM
same,IC50,[14],> 10 µM
same,IC50,[15],> 10 µM
same,ionized at pH 7.4,"[16]; pH 7.4, based on measured pKa",~17%
same,pKa,"[16]; UV metric method, read-out: pKa (UV metric)",6.78
same,pKa,"[16]; pH 7.4, pKa (final pKa result)",6.7
same,pKa,"[16]; pH metric method, read-out: pKa (pH metric)",6.62
same,IC50,[17],> 10 µM
same,clearance,[18]; [23],4.4 to 14.6 mL/min/kg
same,half-life,[18]; [23],0.62 to 1.3 h
same,Vd,"[18]; CD-1, Sprague-Dawley, beagle, mouse, rat, dog, in vivo, IV administration, read-out: volume of distribution",0.28 to 0.48 L/kg
same,bioavailability,[18]; PO suspension in 0.5% MC (4000 cps)/0.2% Tween80 in water,38–83 %F
same,IC50,[19],> 10 µM
same,Kp uu at 1 h,[20]; 1 h after PO 100 mg/kg single dose,1.56
same,Kp uu at 8 h,[20]; 8 h after PO 100 mg/kg single dose,1.03
same,IC50,[21],> 10 µM
same,IC50,[22],> 10 µM
